Consider 2 compounds from patent US6958334B2, “Inhibitors of Akt activity” (Merck & Co., Inc., priority 2001, dated 2005).

The test system of the assay is PKC (mix of isoforms). The assay is described as follows: PKC assay (counter screen). Format: biochemical. As to conditions: myelin basic protein substrate; read-out: Counter screens IC50 (μM) PKC. As to the method:
Each PKC assay consists of the following components:
Final assay concentrations were as follows: 0.25 mM EGTA, 0.4 mM CaCl, 20 mM Tris pH 7.5, 10 mM MgCl, 1 mM 2-mercaptoethanol, 0.32 mg/ml phosphatidylserine, 0.032 mg/ml diacylglycerol, 10 μM ^33P-ATP, 70 μg/ml MBP, 10 ng/ml PKC, 0.1 mg/ml BSA.
Assays are performed using 96 deep well assay plates. In each assay well 10 μl of solvent control or appropriate inhibitor dilution with 5 μl ^33P-ATP (components #5 and #3) were premixed. In a separate tube, a mixture containing equal volumes of components #1, #2, #4, and #6 was prepared. The assay reaction was initiated, by adding 35 μl of the components #1, #2, #4, and #6 mixture to wells containing ^33P-ATP and inhibitor. The liquid in the assay wells was thoroughly mixed and the assay reactions incubated for 20 minutes at room temperature. The reactions were stopped by adding 100 mM EDTA (50 μl) and 100 mM sodium pyrophosphate (50 μl) and mixing. Phosphorylated MBP was collected on PVDF membranes in 96 well filter plates and quantitated by scintillation counting.
(A counterscreen serves to expose hits that act by an unwanted route or on another target.)

SMILES strings stand for the structures.

For orientation: IC50 means the concentration needed to halve the response being measured.

Take `COc1ccc(-c2nnc3c4ccccc4c(NCC(C)(C)CN(C)C)nn23)cc1` [Compound 2, N′-[3-(4-Methoxy-phenyl)-[1,2,4]triazolo[4,3-α]phthalazin-6-yl)-2,2,N,N-tetramethyl-propane-1,3-diamine]: the IC50 was over 40 µM.

`CN(C)CC(C)(C)CNc1nn2c(-c3ccccc3)nnc2c2ccccc12` [Compound 1, 2,2,N,N-tetramethyl-N-(3-phenyl-[1,2,4]triazolo[3,4-α]phthalazin-6-yl)-propane-1,3-diamine]: the IC50 was over 40 µM.
